The values that follow come from US6534516B1, “Androgen receptor modulator compounds and methods” (Ligand Pharmaceuticals Incorporated, priority 1996, dated 2003).

Test [1] addresses T1, human AR (Homo sapiens, UniProt P10275).
T1 construct: expressed in transfected cells; host or cells: CV-1 cells (African green monkey kidney fibroblasts)
T1 sequence (P10275 1-920): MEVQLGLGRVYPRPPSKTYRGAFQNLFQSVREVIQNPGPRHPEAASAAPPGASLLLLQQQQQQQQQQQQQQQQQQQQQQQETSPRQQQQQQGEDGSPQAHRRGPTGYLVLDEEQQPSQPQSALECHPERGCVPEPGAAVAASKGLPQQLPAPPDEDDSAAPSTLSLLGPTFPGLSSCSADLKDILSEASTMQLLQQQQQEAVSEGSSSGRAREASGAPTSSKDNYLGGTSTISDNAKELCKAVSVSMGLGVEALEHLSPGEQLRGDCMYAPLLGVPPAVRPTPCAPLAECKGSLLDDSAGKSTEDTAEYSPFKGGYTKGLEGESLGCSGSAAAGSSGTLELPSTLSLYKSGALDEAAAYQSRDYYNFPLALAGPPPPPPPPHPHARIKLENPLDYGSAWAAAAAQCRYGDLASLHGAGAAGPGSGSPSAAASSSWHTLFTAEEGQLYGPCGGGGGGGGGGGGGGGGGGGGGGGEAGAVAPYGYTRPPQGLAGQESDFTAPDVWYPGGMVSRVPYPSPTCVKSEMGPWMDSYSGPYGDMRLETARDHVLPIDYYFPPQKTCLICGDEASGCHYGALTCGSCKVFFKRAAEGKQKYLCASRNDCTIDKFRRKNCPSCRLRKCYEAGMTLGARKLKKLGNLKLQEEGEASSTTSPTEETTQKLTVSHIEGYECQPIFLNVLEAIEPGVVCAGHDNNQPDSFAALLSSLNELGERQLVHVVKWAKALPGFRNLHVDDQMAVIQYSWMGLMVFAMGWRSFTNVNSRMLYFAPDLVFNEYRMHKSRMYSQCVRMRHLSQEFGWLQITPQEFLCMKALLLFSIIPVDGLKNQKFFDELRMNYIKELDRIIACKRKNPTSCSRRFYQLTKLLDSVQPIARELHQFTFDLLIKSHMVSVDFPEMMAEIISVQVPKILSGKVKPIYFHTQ
The experiment in a line: cell-based. Format: cell-based.

Test [2] concerns the target T1, human AR. Nature of the test: cell-based. The note with it: read-out: AR Binding Ki.

For the compound `CC1(C)CCc2cc3c(C(F)(F)F)c(F)c(=O)[nH]c3cc2N1` [Compound 105, 7-Fluoro-1,2,3,4-tetrahydro-2,2-dimethyl-6-trifluoromethyl-8-pyridono[5,6-g]quinoline], in test [1], the “AR Agonist CV-1 Cells Efficacy” value stood at 39 ± 6% and a half-maximal effect (EC50) was put at 125 ± 28 nM. In test [1] (antagonist mode, DHT at its EC50, % of maximal inhibition, na = not active), the “AR Antagonist CV-1 Cells Efficacy” value is given as 39 ± 6%. In addition, the IC50 in test [1] (read-out: AR Antagonist CV-1 Cells Potency) came out at 34 ± 14 nM. In test [1] (summary of Tables 1 and 2), the “AR activity profile (in words)” value was “mixed AR agonists/antagonists”. Moreover, in test [2], the Ki – broadly, the dissociation constant of the complex between target and ligand, obtained from inhibition or displacement – came out at 21 ± 11 nM.
